pIC50: −log10 of the molar value.
How the values were obtained:
Assay type in all cases: cell-based
human TLR7 = molecular target: T1, human TLR7 (Homo sapiens, UniProt Q9NYK1); test: TLR7 inhibition reporter assay (HEK-Blue SEAP reporter, gardiquimod stimulation); conditions: HEK-Blue cells overexpressing human TLR7, SEAP reporter, gardiquimod 7.5 μM, 22 hour incubation
T1 construct: host or cells: HEK-Blue cells
T1 sequence (Q9NYK1 27-1049): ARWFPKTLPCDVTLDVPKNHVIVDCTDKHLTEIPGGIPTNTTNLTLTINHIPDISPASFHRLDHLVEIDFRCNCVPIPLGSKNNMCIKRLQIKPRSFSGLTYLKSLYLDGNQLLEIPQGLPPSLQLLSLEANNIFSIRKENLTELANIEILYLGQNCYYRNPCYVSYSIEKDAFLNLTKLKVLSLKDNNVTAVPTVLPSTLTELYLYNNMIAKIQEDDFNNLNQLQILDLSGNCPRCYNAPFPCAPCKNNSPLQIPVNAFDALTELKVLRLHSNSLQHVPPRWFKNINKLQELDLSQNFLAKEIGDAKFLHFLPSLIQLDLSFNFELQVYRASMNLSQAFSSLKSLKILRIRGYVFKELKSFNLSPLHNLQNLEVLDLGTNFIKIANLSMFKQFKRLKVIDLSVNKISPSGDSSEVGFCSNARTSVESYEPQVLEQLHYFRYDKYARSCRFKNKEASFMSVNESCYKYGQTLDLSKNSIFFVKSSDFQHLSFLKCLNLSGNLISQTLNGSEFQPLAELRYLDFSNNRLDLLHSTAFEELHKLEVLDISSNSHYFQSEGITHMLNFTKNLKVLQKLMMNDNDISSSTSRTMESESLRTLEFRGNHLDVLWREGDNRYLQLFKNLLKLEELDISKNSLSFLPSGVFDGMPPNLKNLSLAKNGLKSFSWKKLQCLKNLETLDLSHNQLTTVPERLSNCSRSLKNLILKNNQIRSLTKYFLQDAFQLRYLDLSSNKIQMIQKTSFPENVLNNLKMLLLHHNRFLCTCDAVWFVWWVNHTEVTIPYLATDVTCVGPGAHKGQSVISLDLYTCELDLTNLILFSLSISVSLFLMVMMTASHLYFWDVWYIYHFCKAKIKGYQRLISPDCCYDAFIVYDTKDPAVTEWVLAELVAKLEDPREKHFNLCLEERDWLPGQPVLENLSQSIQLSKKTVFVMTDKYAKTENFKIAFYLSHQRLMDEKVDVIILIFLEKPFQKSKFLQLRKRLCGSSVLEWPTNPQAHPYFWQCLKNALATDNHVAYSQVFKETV
Summary of the method: (§1)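 Human TLR7/8/9 HEK-Blue reporter lines; dose range 0.05 nM–50 μM; 30 min RT preincubation; stimulus gardiquimod 7.5 μM / R848 15.9 μM / ODN2006 5 nM respectively; 22 h, 37 °C; SEAP detected colorimetrically.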

human TLR8 = molecular target: T2, human TLR8 (Homo sapiens, UniProt Q9NR97); test: TLR8 inhibition reporter assay (HEK-Blue SEAP reporter, R848 stimulation); conditions: HEK-Blue cells overexpressing human TLR8, SEAP reporter, R848 15.9 μM, 22 hour incubation
T2 construct: host or cells: HEK-Blue cells
T2 sequence (Q9NR97 27-1041): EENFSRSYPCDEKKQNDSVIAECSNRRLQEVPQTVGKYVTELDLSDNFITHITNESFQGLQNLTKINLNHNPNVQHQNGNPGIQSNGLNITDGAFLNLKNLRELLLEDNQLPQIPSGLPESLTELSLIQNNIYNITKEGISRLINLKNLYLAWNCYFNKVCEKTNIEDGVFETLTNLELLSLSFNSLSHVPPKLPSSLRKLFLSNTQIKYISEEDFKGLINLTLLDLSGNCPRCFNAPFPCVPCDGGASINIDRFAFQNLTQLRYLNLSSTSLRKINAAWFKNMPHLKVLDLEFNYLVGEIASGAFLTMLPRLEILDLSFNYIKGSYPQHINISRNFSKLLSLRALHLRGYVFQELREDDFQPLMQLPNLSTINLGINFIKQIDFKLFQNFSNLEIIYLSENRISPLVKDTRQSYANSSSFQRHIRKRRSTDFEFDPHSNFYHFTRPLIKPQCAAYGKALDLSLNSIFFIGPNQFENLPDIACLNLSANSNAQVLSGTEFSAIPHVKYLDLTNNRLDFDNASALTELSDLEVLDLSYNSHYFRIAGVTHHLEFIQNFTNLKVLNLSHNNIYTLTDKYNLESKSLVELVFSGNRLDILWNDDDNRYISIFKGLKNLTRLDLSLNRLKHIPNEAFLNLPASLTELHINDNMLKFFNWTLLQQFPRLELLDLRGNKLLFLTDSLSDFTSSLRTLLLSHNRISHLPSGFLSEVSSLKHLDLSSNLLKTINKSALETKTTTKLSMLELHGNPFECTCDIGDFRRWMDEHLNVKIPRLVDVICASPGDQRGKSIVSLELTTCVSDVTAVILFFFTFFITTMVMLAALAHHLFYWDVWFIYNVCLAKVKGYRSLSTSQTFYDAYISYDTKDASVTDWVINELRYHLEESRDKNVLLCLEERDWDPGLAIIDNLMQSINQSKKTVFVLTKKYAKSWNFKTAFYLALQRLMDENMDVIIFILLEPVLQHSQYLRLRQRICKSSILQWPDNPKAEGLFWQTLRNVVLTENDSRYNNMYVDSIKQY
Summary of the method: as §1

human TLR9 = molecular target: T3, human TLR9 (Homo sapiens, UniProt Q9NR96); test: TLR9 inhibition reporter assay (HEK-Blue SEAP reporter, ODN2006 stimulation); conditions: HEK-Blue cells overexpressing human TLR9, SEAP reporter, ODN2006 5 nM, 22 hour incubation
T3 construct: host or cells: HEK-Blue cells
T3 sequence (Q9NR96 26-1032): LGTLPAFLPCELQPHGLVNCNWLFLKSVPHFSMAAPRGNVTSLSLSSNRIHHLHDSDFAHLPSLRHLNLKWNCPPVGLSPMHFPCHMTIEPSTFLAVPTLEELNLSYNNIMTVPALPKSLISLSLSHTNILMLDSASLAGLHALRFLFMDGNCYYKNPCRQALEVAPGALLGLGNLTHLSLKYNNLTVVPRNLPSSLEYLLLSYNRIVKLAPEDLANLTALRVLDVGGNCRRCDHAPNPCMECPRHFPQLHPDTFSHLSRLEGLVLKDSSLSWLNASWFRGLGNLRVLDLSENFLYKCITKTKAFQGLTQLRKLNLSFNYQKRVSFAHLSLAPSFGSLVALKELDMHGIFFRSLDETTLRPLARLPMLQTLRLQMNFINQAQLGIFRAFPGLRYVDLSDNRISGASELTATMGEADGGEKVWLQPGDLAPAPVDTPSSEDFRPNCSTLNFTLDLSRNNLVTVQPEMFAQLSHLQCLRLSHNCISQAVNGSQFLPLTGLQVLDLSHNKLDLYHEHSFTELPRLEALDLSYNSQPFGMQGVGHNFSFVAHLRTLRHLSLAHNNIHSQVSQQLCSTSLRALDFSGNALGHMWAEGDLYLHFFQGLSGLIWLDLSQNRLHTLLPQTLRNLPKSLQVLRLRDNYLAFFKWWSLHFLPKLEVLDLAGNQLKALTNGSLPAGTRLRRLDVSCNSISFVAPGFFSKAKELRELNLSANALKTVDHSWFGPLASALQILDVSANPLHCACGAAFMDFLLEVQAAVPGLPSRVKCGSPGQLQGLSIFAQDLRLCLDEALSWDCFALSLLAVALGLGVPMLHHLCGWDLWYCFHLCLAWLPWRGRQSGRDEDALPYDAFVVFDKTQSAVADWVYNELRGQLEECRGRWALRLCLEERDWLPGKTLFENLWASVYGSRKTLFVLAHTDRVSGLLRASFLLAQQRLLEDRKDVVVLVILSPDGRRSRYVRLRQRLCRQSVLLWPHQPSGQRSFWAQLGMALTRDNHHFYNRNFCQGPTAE
Summary of the method: as §1

Row | pIC50 (human TLR7) | pIC50 (human TLR8) | pIC50 (human TLR9) | SMILES
1 | 7.22 | 8.33 | 4.94 | CNC(=O)CN1CCC(c2ccc3[nH]c(-c4cc(C#N)c(=O)n(C)c4C)c(C(C)C)c3c2)CC1 [Example 144, 2-(4-(2-(5-cyano-1,2-dimethyl-6-oxo-1,6-dihydropyridin-3-yl)-3-isopropyl-1H-indol-5-yl)piperidin-1-yl)-N-methylacetamide]
2 | 7.20 | 7.97 | 5.14 | Cc1c(-c2[nH]c3ccc(C4CCN(CC(=O)N(C)C)CC4)cc3c2C(C)C)cc(C#N)c(=O)n1C [Example 145, 2-(4-(2-(5-cyano-1,2-dimethyl-6-oxo-1,6-dihydropyridin-3-yl)-3-isopropyl-1H-indol-5-yl)piperidin-1-yl)-N,N-dimethylacetamide]
3 | 7.41 | 8.35 | 5.16 | CNC(=O)CN1CCC(c2ccc3[nH]c(-c4cn(C)c(=O)c(C#N)c4C)c(C(C)C)c3c2)CC1 [Example 146, 2-(4-(2-(5-cyano-1,4-dimethyl-6-oxo-1,6-dihydropyridin-3-yl)-3-isopropyl-1H-indol-5-yl)piperidin-1-yl)-N-methylacetamide]
4 | 7.25 | 8.32 | 5.30 | Cc1c(-c2[nH]c3ccc(C4CCN(CC(=O)N(C)C)CC4)cc3c2C(C)C)cn(C)c(=O)c1C#N [Example 147, 2-(4-(2-(5-cyano-1,4-dimethyl-6-oxo-1,6-dihydropyridin-3-yl)-3-isopropyl-1H-indol-5-yl)piperidin-1-yl)-N,N-dimethylacetamide]
5 | 6.71 | 6.44 | ≤ 4.30 | Cc1cc(-c2[nH]c3ccc(C4CCN(C(C)(C)C(=O)O)CC4)cc3c2C(C)C)cn(C)c1=O [Example 148, 2-(4-(2-(1,5-dimethyl-6-oxo-1,6-dihydropyridin-3-yl)-3-isopropyl-1H-indol-5-yl)piperidin-1-yl)-2-methylpropanoic acid]
6 | 7.80 | 7.56 | 4.64 | Cc1cc(-c2[nH]c3ccc(C4CCN(C5CC(C)OC5=O)CC4)cc3c2C(C)C)cn(C)c1=O (stereo not drawn) [Example 149, 5-(3-isopropyl-5-(1-(5-methyl-2-oxotetrahydrofuran-3-yl)piperidin-4-yl)-1H-indol-2-yl)-1,3-dimethylpyridin-2(1H)-one]
7 | 8.92 | 8.36 | 4.94 | Cc1cc(-c2[nH]c3ccc(C4CCN(CC(N)=O)CC4)cc3c2C(C)C)cn(C)c1=O [Example 150, 2-(4-(2-(1,5-dimethyl-6-oxo-1,6-dihydropyridin-3-yl)-3-isopropyl-1H-indol-5-yl)piperidin-1-yl)acetamide]
8 | 8.92 | 7.86 | 4.96 | Cc1cc(-c2[nH]c3ccc(C4CCN(C(C)(C)C(N)=O)CC4)cc3c2C(C)C)cn(C)c1=O [Example 151, 2-(4-(2-(1,5-dimethyl-6-oxo-1,6-dihydropyridin-3-yl)-3-isopropyl-1H-indol-5-yl)piperidin-1-yl)-2-methylpropanamide]
9 | 8.85 | 8.34 | 4.78 | Cc1c(-c2[nH]c3ccc(C4CCN(CC(=O)N(C)C)CC4)cc3c2C(C)C)cn(C)c(=O)c1Cl [Example 152, 2-(4-(2-(5-chloro-1,4-dimethyl-6-oxo-1,6-dihydropyridin-3-yl)-3-isopropyl-1H-indol-5-yl)piperidin-1-yl)-N,N-dimethylacetamide]
10 | 8.46 | 7.90 | 5.10 | CNC(=O)CN1CCC(c2ccc3[nH]c(-c4cn(C)c(=O)c(Cl)c4C)c(C(C)C)c3c2)CC1 [Example 153, 2-(4-(2-(5-chloro-1,4-dimethyl-6-oxo-1,6-dihydropyridin-3-yl)-3-isopropyl-1H-indol-5-yl)piperidin-1-yl)-N-methylacetamide]
11 | 8.34 | 7.58 | 4.86 | Cc1c(-c2[nH]c3ccc(C4CCN(C(C)(C)C(N)=O)CC4)cc3c2C(C)C)cn(C)c(=O)c1Cl [Example 154, 2-(4-(2-(5-chloro-1,4-dimethyl-6-oxo-1,6-dihydropyridin-3-yl)-3-isopropyl-1H-indol-5-yl)piperidin-1-yl)-2-methylpropanamide]
12 | 8.28 | 7.62 | 4.67 | CCNC(=O)CN1CCC(c2ccc3[nH]c(-c4cn(C)c(=O)c(Cl)c4C)c(C(C)C)c3c2)CC1 [Example 155, 2-(4-(2-(5-chloro-1,4-dimethyl-6-oxo-1,6-dihydropyridin-3-yl)-3-isopropyl-1H-indol-5-yl)piperidin-1-yl)-N-ethylacetamide]
13 | 8.37 | 8.13 | 4.93 | Cc1c(-c2[nH]c3ccc(C4CCN(C(C)C(N)=O)CC4)cc3c2C(C)C)cn(C)c(=O)c1Cl (stereo not drawn) [Example 156, 2-(4-(2-(5-chloro-1,4-dimethyl-6-oxo-1,6-dihydropyridin-3-yl)-3-isopropyl-1H-indol-5-yl)piperidin-1-yl)propanamide]

From patent US11447466B2, “Substituted indole compounds useful as inhibitors of TLR7/8/9” (BRISTOL-MYERS SQUIBB COMPANY, priority 2017, dated 2022)
